Assays:
[1] = target: T1, Nuclear receptor ROR-beta (Homo sapiens, UniProt Q92753); assay: Inverse agonist activity at GAL4-fused human RORb expressed in HEK293T cells assessed as suppression of basal transcriptional activity after 20 hrs by dual-glo luciferase reporter gene assay; type: cell-based, HEK-293T
T1 sequence (Q92753 whole entry): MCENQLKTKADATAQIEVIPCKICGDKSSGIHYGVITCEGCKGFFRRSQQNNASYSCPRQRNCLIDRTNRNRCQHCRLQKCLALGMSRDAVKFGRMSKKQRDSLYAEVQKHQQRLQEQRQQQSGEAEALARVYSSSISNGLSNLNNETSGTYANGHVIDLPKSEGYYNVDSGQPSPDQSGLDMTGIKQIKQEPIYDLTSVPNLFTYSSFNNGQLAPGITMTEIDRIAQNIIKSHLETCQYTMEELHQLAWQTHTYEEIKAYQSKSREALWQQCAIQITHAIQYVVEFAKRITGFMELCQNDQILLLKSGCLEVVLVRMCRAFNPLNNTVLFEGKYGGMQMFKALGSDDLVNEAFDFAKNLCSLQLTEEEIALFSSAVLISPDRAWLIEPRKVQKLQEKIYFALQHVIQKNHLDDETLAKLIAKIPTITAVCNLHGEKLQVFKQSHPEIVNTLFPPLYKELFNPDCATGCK

[2] = target: T2, Oxysterols receptor LXR-alpha (Homo sapiens, UniProt Q13133)
T2 sequence (Q13133 whole entry): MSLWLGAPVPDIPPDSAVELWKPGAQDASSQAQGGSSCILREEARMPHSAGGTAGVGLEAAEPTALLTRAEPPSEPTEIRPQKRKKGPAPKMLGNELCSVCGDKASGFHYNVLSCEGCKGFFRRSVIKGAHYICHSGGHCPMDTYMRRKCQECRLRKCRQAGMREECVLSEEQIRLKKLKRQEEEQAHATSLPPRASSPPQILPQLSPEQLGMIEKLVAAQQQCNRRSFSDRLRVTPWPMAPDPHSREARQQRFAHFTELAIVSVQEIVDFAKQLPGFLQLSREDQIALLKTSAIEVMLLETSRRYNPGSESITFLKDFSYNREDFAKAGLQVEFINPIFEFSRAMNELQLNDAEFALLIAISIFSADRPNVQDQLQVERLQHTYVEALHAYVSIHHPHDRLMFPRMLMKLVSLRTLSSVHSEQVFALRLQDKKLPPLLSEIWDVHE
Description: Agonist activity at GAL4-fused human LXRalpha expressed in HEK293T cells assessed as activation of basal transcriptional activity after 20 hrs by dual-glo luciferase reporter gene assay

[3] = target: T3, PXR (NR1I2) (Homo sapiens, UniProt O75469); assay: in vitro; details: HEK293T cells expressing GAL4-fused human PXR
T3 sequence (O75469 whole entry): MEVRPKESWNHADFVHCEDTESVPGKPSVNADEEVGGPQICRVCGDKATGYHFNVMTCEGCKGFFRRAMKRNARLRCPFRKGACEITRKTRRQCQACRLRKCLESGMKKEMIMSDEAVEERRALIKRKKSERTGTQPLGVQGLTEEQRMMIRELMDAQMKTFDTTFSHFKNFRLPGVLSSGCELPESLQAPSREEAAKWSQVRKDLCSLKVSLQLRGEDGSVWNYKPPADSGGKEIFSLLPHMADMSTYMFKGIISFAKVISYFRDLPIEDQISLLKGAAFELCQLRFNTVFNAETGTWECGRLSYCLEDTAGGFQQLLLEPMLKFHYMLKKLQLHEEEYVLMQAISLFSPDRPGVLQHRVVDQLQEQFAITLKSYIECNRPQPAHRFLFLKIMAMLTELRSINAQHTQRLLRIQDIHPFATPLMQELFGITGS
Description: Agonist activity at GAL4-fused human PXR expressed in HEK293T cells assessed as activation of basal transcriptional activity after 20 hrs by dual-glo luciferase reporter gene assay relative to apo-receptor

[4] = target: T4, Nuclear receptor ROR-gamma (Homo sapiens, UniProt P51449)
T4 sequence (P51449 whole entry): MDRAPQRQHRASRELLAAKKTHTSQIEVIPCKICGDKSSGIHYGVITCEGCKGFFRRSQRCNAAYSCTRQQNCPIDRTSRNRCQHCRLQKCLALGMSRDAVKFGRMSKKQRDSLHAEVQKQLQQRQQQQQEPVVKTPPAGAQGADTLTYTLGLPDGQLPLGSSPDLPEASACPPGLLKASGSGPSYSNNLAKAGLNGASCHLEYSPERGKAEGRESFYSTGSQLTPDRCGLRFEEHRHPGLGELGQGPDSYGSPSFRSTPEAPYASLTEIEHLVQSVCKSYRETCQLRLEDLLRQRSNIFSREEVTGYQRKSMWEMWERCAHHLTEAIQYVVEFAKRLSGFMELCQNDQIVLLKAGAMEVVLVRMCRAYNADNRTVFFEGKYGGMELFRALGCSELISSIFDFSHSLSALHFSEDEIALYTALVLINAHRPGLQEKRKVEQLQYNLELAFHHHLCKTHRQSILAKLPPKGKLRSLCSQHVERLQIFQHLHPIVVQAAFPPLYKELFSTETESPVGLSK
Description: Inverse agonist activity at GAL4-fused human RORc expressed in HEK293T cells assessed as suppression of basal transcriptional activity after 20 hrs by dual-glo luciferase reporter gene assay

[5] = target: T4, Nuclear receptor ROR-gamma; remark: listed apart in the source
Description: Displacement of [3H2]-25-hydroxycholesterol from N-terminal 6xHis-tagged human RORc ligand binding domain (241 to 486) expressed in bacterial expression system after 3 hrs by scintillation counting analysis

[6] = target: T4, Nuclear receptor ROR-gamma; remark: listed apart in the source
Description: Inverse agonist activity at N-terminal 6xHis-tagged human RORc ligand binding domain (241 to 486) expressed in bacterial expression system assessed as inhibition of SRC1 co-activator peptide recruitment after 3 hrs by TR-FRET analysis

[7] = target: T5, Nuclear receptor ROR-alpha (Homo sapiens, UniProt P35398); assay: Inverse agonist activity at GAL4-fused human RORa expressed in HEK293T cells assessed as suppression of basal transcriptional activity after 20 hrs by dual-glo luciferase reporter gene assay; type: cell-based, HEK-293T
T5 sequence (P35398 whole entry): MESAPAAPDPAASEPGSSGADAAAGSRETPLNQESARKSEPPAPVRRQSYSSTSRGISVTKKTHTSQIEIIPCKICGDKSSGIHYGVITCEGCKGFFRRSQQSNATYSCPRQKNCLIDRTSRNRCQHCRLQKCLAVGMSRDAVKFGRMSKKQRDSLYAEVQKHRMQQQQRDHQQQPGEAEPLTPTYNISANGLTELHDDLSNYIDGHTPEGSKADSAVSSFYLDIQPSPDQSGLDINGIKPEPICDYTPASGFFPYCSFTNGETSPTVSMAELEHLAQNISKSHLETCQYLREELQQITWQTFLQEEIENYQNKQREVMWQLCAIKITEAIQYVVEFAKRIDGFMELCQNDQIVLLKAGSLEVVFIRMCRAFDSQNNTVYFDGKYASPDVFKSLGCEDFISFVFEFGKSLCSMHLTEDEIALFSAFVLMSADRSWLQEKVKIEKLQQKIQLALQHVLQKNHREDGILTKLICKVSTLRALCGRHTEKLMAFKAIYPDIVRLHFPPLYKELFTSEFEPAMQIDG

| Structure (SMILES) | EC50 [1] [nM] | EC50 [2] [nM] | fold induction at 20 h [3] | EC50 [4] [nM] | IC50 [5] [nM] | EC50 [6] [nM] | EC50 [7] [nM] |
| --- | --- | --- | --- | --- | --- | --- | --- |
| CCN(c1ccc(C(O)(C(F)(F)F)C(F)(F)F)cc1)S(=O)(=O)c1ccccc1 | 4000 | 3000 | 24 | 593 | 245 | 190 | 5000 |
| N#Cc1ccc(S(=O)(=O)N(CC(F)(F)F)c2ccc(C(O)(C(F)(F)F)C(F)(F)F)cc2)cc1 | 5000 | > 10000 | 27 | 192 | 50 | 61 | 7000 |
| O=S(=O)(c1ccc(F)cc1)N(CC(F)(F)F)c1ccc(C(O)(C(F)(F)F)C(F)(F)F)cc1 | 6000 | 719 | 30 | 89 | 34 | 19 | 6000 |
